The values that follow come from paper PMC12016531 (Applied and Environmental Microbiology, 2025).

Assay [1] has as its system L. monocytogenes ATCC19111. In words: Intracellular accumulation of UDP-MurNAc-pentapeptide. In kind it is cell-based, Listeria monocytogenes. Conditions: mycoidesin 1× and 2× MIC, vancomycin 10× MIC; 60 min; chloramphenicol 130 µg/mL pre-incubation 15 min; HPLC, MS. As to the method: (§1) Bacillus cereus CMCC63301 and L. monocytogenes ATCC19111 were grown to an OD600 of 0.3 and incubated with chloramphenicol (130 µg/mL) for 15 min. Mycoidesin (1× and 2× MIC) and vancomycin (10× MIC; positive control) were added and incubated for 60 min. The cells were collected, added to boiling water, treated for 15 min, centrifuged, and the supernatant was lyophilized. The intracellular accumulation of the peptidoglycan precursor UDP-MurNAc-pentapeptide was analyzed using HPLC (Hypersil ODS column) and identified via mass spectrometry ([27]).

Assay [2] deals with Bacillus cereus CMCC63301. The assay is described as above. The class given is cell-based. Conditions: mycoidesin 1× and 2× MIC, vancomycin 10× MIC; 60 min; chloramphenicol 130 µg/mL pre-incubation 15 min; HPLC, MS. How it is done:
as §1

SMILES strings stand for the structures.

On to `CN[C@H](CC(C)C)C(=O)N[C@H]1C(=O)N[C@@H](CC(N)=O)C(=O)N[C@H]2C(=O)N[C@H]3C(=O)N[C@H](C(=O)N[C@H](C(=O)O)c4cc(O)cc(O)c4-c4cc3ccc4O)[C@H](O)c3ccc(c(Cl)c3)Oc3cc2cc(c3O[C@@H]2O[C@H](CO)[C@@H](O)[C@H](O)[C@H]2O[C@H]2C[C@](C)(N)[C@H](O)[C@H](C)O2)Oc2ccc(cc2Cl)[C@H]1O` [vancomycin, reference compound], for which the “Intracellular accumulation of UDP-MurNAc-pentapeptide” value in assay [1] and in assay [2] was “observed” throughout.
